Reference: patent publication US20240277727A1, “CHARGED ION CHANNEL BLOCKERS AND METHODS FOR USE” (Nocion Therapeutics, Inc., priority 2019, published 2024)

Assays:
NaV1.7 [1] = target: T1, NaV1.7 (Homo sapiens, UniProt Q15858); experiment: Intracellular (internal block) inhibition of NaV1.7 current, whole cell patch clamp; format: cell-based; settings: compound in internal solution; for inhibition at 1 µM: read-out: Nav 1.7 Intracellular Inhibition
T1 construct: expressed in transfected cells; tetracycline-inducible, kept under hygromycin and blasticidin selection
Experimental: (§1) NaV1.7 was expressed upon induction with tetracycline. Cells were cultured in DMEM containing 10% dialyzed Fetal Bovine Serum (VWR, Radnor, PA), 1% Glutamax (VWR, Radnor, PA), 1% Penicillin-Streptomycin (VWR, Radnor, PA), 100 mg/L Hygromycin (Thermo Fisher Scientific, Waltham, MA and 5 mg/L Blasticidin (Alfa Aesar, Haverhill, MA). Cells were grown and maintained at 37° C. in a humidified environment containing 10% CO2 in air. Cells were detached from the culture flask for passage and harvested using 0.05% Trypsin-EDTA (Thermo Fisher Scientific, Waltham, MA). To induce NaV1.7, cells were induced with tetracycline (0.1-1 μg/mL, IBI Scientific, Peosta, IA) the day before recording and plated onto 24-well plates. Cells were washed with DPBS (VWR, Radnor, PA), trypsinized and then triturated five times in 10 mL of growth media to break apart cell aggregates. For one 24-well plate, 2 mL of cell suspension was mixed with 23 mL of fresh growth media and 0.1-1 μg/mL tetracycline added. 1 ml of mixed media with cells was then added to each well of a 24-well plate, with a 12 mm coverslip already placed in the bottom of the well. Cells were then incubated in 37° C. and 10% CO2 overnight.
The intracellular solution contained the following (in mM) CsCl 135, NaCl 10, EGTA 10, HEPES 10, MgCl2 2, adjusted to pH 7.2 with CsOH. The external solution was a normal Ringer solution containing (in mM) NaCl 155, HEPES 10, glucose 10, KCl 3.5, CaCl2 1.5, MgCl2 1 adjusted to pH 7.4 with NaOH. CsCl is from Alfa Aesar, Haverhill, MA. All other chemicals are from Sigma-Aldrich, St. Louis, MO. In order to test the degree of internal block by test compounds the compounds were dissolved in internal solution at the indicated test concentration. […] In order to test the degree of external block by test compounds the compounds were dissolved in external solution at the indicated test concentration.
18-24 hours after cells were induced with tetracycline, coverslips were placed into a chamber filled with Normal Ringer solution at room temperature and the chamber placed on a microscope. Pipettes were pulled from borosilicate glass on a P97 puller (Sutter Instrument, Novato, CA) and polished with a MF-830 Microforge (Narishige International USA, Inc, Amityville, NY) to have a resistance of 1.5-2.5 MΩ when filled with CsCl internal solution at room temperature. Healthy cells (those that are round and translucent with no visible blemishes) were chosen for seal formation. A seal was formed between the pipette and the cell, and a brief pulse of suction was used to “break in” and establish the whole-cell configuration. The membrane potential was held at −100 mV before the voltage protocol began. Only cells with series resistance between 1.5-5 MΩ were retained for analysis. The voltage protocol was as follows: Cells were held at −100 mV for 12 ms followed by a hyperpolarizing step to −105 mV for 12 ms to monitor the leak. Cells were then stepped back to −100 mV for 40 ms. Cells were then depolarized to −20 mV for 10 ms and then returned to −100 mV for 26 ms.
Once the recording was started, the voltage protocol was run at 30 second intervals for 5 minutes to get a stable baseline. This was followed by four 30-second periods of 5 Hz stimulation of the same voltage protocol separated by 1 minute of rest which was then followed by 0.33 Hz stimulation after the last train. Currents were recorded using PatchMaster software with Heka EPC10 (HEKA Electronics, Lambrecht, Germany). Only cells with inward current amplitudes at −20 m V between 400 pA and 4 nA were accepted. In addition, cells having leak currents greater than 10% of their current amplitudes were discarded.
(§2) The data was plotted using the Patchmaster software (HEKA Electronics, Lambrecht, Germany) and analyzed by plotting the minimum current during the voltage step to −20 m V (peak inward current) as a function of time. […]

[2] = PAMPA membrane permeability assay; format: in vitro ADME; settings: pH 7.4, GIT lipid, 4 hours incubation
Experimental: The PAMPA assay (pION, Inc., Woburn MA) was used to determine the ability of compounds of the invention to cross an artificial lipid membrane by passive diffusion. Test compounds were dissolved in DMSO (10 mM) and diluted 200-fold in buffer (pION Inc., pH 7.4) to provide 50 μM stock solutions. Buffer (150 μL) was added to a UV blank plate and stock solutions (150 μL) were transferred to a UV reference plate. The blank and reference spectrum were read using a spectrophotometer. Stock solutions (200 μL) were added to the donor plate of the PAMPA sandwich plate and an accept plate painted with GIT lipid (pION Inc, 5 μL) was placed on top. Buffer (200 μL) was added to the acceptor plate and the PAMPA sandwich plate was incubated for 4 hours. Aliquots (150 μL) from the acceptor plate were added to a UV plate and read as acceptor spectrum. Aliquots (150 μL) of the donor solutions were added to a UV analysis plate and read as donor spectrum. The permeability coefficient of test compounds was calculated using PAMPA Explorer™ software (version 3.5.0.4) based on the AUC of the reference plate, the donor plate, and the acceptor plate.

NaV1.7 [3] = target: T1, NaV1.7; experiment: Extracellular (external block) inhibition of NaV1.7 current, whole cell patch clamp; format: cell-based; settings: compound in external solution
Experimental: as §1, with “For one 24-well plate, 2 mL of cell suspension was mixed with 23 mL of fresh growth media and 0.1-1 μg/mL tetracycline added. 1 ml of mixed media with cells was then added to each well of a 24-well plate, with a 12 mm coverslip already placed in the bottom of the well. Cells were then incubated in 37° C. and 10% CO2 overnight.” left out
Once the recording was started, the voltage protocol was run at 30 second intervals for 5 minutes to get a stable baseline. […] Currents were recorded using PatchMaster software with Heka EPC10 (HEKA Electronics, Lambrecht, Germany). […]
as §2

T1 sequence (Q15858 whole entry): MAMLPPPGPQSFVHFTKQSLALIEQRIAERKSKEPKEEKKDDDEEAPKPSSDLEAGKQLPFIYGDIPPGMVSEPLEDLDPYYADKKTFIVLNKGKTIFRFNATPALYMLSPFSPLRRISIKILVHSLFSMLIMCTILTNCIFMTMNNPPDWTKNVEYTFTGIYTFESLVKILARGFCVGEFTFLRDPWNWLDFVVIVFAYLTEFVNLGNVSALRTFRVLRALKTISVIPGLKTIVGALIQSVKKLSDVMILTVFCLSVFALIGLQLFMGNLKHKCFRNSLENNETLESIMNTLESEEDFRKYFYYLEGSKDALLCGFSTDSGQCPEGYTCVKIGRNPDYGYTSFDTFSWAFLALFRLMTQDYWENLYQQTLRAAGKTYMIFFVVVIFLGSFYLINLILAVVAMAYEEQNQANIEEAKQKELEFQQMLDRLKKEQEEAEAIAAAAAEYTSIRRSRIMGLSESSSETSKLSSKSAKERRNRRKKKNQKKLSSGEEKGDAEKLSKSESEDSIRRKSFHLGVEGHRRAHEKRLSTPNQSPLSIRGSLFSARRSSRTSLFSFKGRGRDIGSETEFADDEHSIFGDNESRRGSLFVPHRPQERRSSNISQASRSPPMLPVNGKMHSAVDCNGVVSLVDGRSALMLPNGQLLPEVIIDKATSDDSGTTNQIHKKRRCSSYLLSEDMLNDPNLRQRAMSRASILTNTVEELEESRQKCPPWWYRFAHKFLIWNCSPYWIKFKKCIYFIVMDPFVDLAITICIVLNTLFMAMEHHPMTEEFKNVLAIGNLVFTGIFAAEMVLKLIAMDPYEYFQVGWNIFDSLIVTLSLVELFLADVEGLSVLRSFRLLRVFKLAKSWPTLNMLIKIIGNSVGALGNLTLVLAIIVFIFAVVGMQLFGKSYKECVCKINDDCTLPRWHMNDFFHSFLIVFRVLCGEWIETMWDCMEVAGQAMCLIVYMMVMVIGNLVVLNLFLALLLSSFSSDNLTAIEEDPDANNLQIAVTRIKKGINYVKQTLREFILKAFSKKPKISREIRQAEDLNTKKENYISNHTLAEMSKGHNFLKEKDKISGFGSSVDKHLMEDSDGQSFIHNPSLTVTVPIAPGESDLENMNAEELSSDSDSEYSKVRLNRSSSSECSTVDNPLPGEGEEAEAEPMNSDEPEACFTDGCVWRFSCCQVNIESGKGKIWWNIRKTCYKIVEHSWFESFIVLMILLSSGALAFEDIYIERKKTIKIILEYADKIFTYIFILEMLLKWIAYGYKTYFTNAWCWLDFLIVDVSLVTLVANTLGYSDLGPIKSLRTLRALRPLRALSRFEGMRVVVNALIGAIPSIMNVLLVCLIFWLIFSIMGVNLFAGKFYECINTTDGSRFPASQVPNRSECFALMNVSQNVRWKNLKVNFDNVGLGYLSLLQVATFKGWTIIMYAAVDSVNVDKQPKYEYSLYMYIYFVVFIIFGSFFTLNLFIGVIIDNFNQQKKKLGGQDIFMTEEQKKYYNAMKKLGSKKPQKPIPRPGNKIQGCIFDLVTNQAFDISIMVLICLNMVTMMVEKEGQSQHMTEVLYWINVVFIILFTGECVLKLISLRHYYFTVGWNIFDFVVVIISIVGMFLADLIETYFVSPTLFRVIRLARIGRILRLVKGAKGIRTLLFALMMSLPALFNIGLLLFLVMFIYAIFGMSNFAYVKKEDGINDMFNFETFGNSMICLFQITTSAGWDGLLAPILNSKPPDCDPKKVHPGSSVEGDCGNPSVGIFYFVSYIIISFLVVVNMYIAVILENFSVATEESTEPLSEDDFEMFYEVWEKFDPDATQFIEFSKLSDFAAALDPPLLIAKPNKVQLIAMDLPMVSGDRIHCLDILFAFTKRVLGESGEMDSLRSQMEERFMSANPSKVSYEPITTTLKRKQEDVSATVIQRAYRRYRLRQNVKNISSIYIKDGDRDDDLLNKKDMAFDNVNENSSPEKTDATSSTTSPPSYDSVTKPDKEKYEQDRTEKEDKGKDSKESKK

inhibition at 1 µM (NaV1.7 [1]) [%] | PAMPA (10^−6 cm/s) [2] | inhibition at 1 µM (NaV1.7 [3]; test concentration of 1 μM) [%] | inhibition at 3 µM (NaV1.7 [1]; test concentration of 3 μM) [%] | inhibition at 3 µM (NaV1.7 [3]; test concentration of 3 μM) [%] | Papp at 4 h, 50 µM ([2]; PAMPA) [×10⁻⁶ cm/s] | Compound
70 to 90 | ++ (“++” (0.1-2.0 10^−6 cm/s)) |  |  |  |  | Cc1csc(C(=O)OC(C)C)c1NC(=O)C[N+]1(Cc2ccccc2)CCCCCC1.[Br-] [E]
40 to 70 | + (“+” (<0.1 10^−6 cm/s)) |  |  |  |  | Cc1csc(C)c1NC(=O)C[N+]1(Cc2ccccc2)CCCCCC1.[Br-] [H]
70 to 90 | + (“+” (<0.1 10^−6 cm/s)) |  |  |  |  | CC[N+]1(CC(=O)Nc2c(C)csc2C(=O)OC)CCCC(c2ccccc2)C1.[I-] (stereo not shown) [F]
40 to 70 | + (“+” (<0.1 10^−6 cm/s)) |  |  |  |  | CCC(C(=O)Nc1c(C)csc1C(=O)OC)[N+]1(Cc2ccccc2)CCCCC1.[Br-] (stereo not shown) [G]

More lines, now with the values behind:

Compound | inhibition at 1 µM (NaV1.7 [1]) [%] | PAMPA (10^−6 cm/s) [2] | inhibition at 1 µM (NaV1.7 [3]; test concentration of 1 μM) [%] | inhibition at 3 µM (NaV1.7 [1]; test concentration of 3 μM) [%] | inhibition at 3 µM (NaV1.7 [3]; test concentration of 3 μM) [%] | Papp at 4 h, 50 µM ([2]; PAMPA) [×10⁻⁶ cm/s]
COC(=O)c1scc(C)c1NC(=O)C[N+]1(Cc2ccccc2)CCCCC1.[Br-] [B] | 40 to 70 | ++ (“++” (0.1-2.0 10^−6 cm/s)) |  |  |  | 
CCCOC(=O)c1scc(C)c1NC(=O)C[N+]1(Cc2ccccc2)CCCCCC1.[Br-] [C] | > 90 | + (“+” (<0.1 10^−6 cm/s)) |  |  |  | 
CCOC(=O)c1scc(C)c1NC(=O)C[N+]1(Cc2ccccc2)CCCCCC1.[Br-] [D] | > 90 | + (“+” (<0.1 10^−6 cm/s)) | < 40 |  |  | 
COC(=O)c1scc(C)c1NC(=O)C[N+]1(Cc2ccccc2)CCCCCC1.[Br-] [Compound-31, 1-benzyl-1-(2-((2-(methoxycarbonyl)-4-methylthiophen-3-yl)amino)-2-oxoethyl) azepan-1-ium bromide] | 70 to 90 | ++ (“++” (0.1-2.0 10^−6 cm/s)) |  | > 95 | < 40 | 0.4
COC(=O)c1scc(C)c1NC(=O)C[N+]1(Cc2ccccc2)CCCC1.[Br-] [A] | 40 to 70 | + (“+” (<0.1 10^−6 cm/s)) |  |  |  | 
